Laboratory results taken from patent US8853207B2 (Development Center for Biotechnology, priority 2012, dated 2014).
Counter-ions that a name gives are not always drawn.

Molecular target: FLT3 kinase (FLT3 kinase domain alone, Upstate) (Homo sapiens (Human), UniProt P36888)
Assay: FLT3 kinase assay ([33P] incorporation into substrate)
Type: biochemical
Conditions: 100 μM ATP, 30° C., 30 minutes; read-out: IC50 against FLT3
Protocol: Inhibition of FLT3 kinase activity by compounds disclosed herein was quantified by measuring the amount of [^33P] incorporated into the substrate in the presence of a test compound. Briefly, a reaction mixture of 25 μL final volume containing 5 ng of FLT3 kinase (FLT3 kinase domain alone, Upstate), 5 μg of the substrate [(Poly (Glu-Tyr, 4:1), Sigma], kinase reaction buffer (20 mM MOPS pH 7.0, 1 mM EDTA, 5% glycerol, 0.01% Brij-35, 0.1% β-mercaptoethanol, 1 mg/mL BSA, 100 μM ATP, 0.1 μCi per well [^33P]-γ-ATP (2,500-3,000 Ci/mmol)), and a test compound (diluted from 9 μM to the desired final concentration by 4% DMSO) or DMSO (as the control) was incubated at 30° C. for 30 minutes. The reaction was stopped by adding 5 μL of 3% phosphoric acid solution. The resultant solution (30 μL) was later harvested by a UniFilter Plate GF/B (PerkinElmer) followed by adding 30 μL of the scintillation cocktail (MicroScint 20, PerkinElmer) to the well. The radioactivity retained on the filter membrane was measured by a luminescence counter (PerkinElmer). The results were analyzed by using linear regression software (GraphPad Prism 4; GraphPad Software Inc.).

FLT3 kinase (FLT3 kinase domain alone, Upstate), sequence (P36888 610-943): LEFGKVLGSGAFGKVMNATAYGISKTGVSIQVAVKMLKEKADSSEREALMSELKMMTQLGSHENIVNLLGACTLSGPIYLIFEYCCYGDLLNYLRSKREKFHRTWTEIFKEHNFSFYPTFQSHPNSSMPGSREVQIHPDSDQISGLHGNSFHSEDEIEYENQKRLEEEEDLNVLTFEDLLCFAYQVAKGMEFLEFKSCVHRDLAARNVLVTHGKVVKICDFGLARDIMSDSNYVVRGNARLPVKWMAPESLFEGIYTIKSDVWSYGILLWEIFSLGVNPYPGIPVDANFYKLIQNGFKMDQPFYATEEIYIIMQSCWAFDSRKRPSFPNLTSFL

Structure (SMILES) | IC50
Clc1cccc(Nc2n[nH]c3c2Cc2sccc2-3)c1Cl [Example-54, (2,3-Dichloro-phenyl)-(4,7-dihydro-1-thia-4,5-diaza-cyclopenta[a]pentalen-6-yl)-amine] | 100 to 499 nM
FC(F)(F)c1cc(-c2n[nH]c3c2Cc2sccc2-3)cc(C(F)(F)F)c1 [Example-43, 6-(3,5-Bis-trifluoromethyl-phenyl)-4,7-dihydro-1-thia-4,5-diaza-cyclopenta[a]pen talene] | > 1000 nM
CN1CCN(c2ccc(-c3n[nH]c4c3Cc3sccc3-4)cc2)CC1 [Example-80, 6-[4-(4-Methyl-piperazin-1-yl)-phenyl]-4,7-dihydro-1-thia-4,5-diaza-cyclopenta[a]pentalene] | < 100 nM
Clc1ccc(Nc2n[nH]c3c2Cc2sccc2-3)cc1 [Example-32, (4-Chloro-phenyl)-(4,7-dihydro-1-thia-4,5-diaza-cyclopenta[a]pentalen-6-yl)-amine] | 100 to 499 nM
Brc1ccc(Nc2n[nH]c3c2Cc2sccc2-3)cc1 [Example-20, (4-Bromo-phenyl)-(4,7-dihydro-1-thia-4,5-diaza-cyclopenta[a]pentalen-6-yl)-amine] | 100 to 499 nM
COc1ccc(-c2n[nH]c3c2Cc2sc(-c4ccc(O)c(OC)c4)cc2-3)cc1 [Example-75, 2-Methoxy-4-[6-(4-methoxy-phenyl)-4,7-dihydro-1-thia-4,5-diaza-cyclopenta[a]pentalen-2-yl]-phenol] | < 100 nM
c1cncc(-c2n[nH]c3c2Cc2sccc2-3)c1 [Example-16, 6-Pyridin-3-yl-4,7-dihydro-1-thia-4,5-diaza-cyclopenta[a]pentalene] | 100 to 499 nM
FC(F)(F)c1ccccc1Nc1n[nH]c2c1Cc1sccc1-2 [Example-42, (4,7-Dihydro-1-thia-4,5-diaza-cyclopenta[a]pentalen-6-yl)-(2-trifluoromethyl-phenyl)-amine] | > 1000 nM
CN1CCN(c2ccc(-c3n[nH]c4c3Cc3sc(-c5ccc(N)nc5)cc3-4)cc2)CC1 [Example-89, 5-{6-[4-(4-Methyl-piperazin-1-yl)-phenyl]-4,7-dihydro-1-thia-4,5-diaza-cyclopenta[a]pentalen-2-yl}-pyridin-2-ylamine hydrochloride] | < 100 nM
COc1ccc(-c2n[nH]c3c2Cc2sc(Br)cc2-3)cc1 [Example-34, 2-Bromo-6-(4-methoxy-phenyl)-4,7-dihydro-1-thia-4,5-diaza-cyclopenta[a]pentalene] | < 100 nM
FC(F)(F)Oc1ccc(Nc2n[nH]c3c2Cc2sccc2-3)cc1 [Example-46, (4,7-Dihydro-1-thia-4,5-diaza-cyclopenta[a]pentalen-6-yl)-(4-trifluoromethoxy-phenyl)-amine] | 500 to 1000 nM
Clc1cc(Cl)cc(-c2n[nH]c3c2Cc2sccc2-3)c1 [Example-57, 6-(3,5-Dichloro-phenyl)-4,7-dihydro-1-thia-4,5-diaza-cyclopenta[a]pentalene] | 100 to 499 nM
c1cc2c(s1)Cc1c(-c3ccc(N4CCOCC4)cc3)n[nH]c1-2 [Example-85, 6-(4-Morpholin-4-yl-phenyl)-4,7-dihydro-1-thia-4,5-diaza-cyclopenta[a]pentalene] | < 100 nM
COc1ccc(-c2cc3c(s2)Cc2c(-c4ccc(OC)cc4)n[nH]c2-3)cc1 [Example-73, 2,6-Bis-(4-methoxy-phenyl)-4,7-dihydro-1-thia-4,5-diaza-cyclopenta[a]pentalene] | < 100 nM
COc1ccc(-c2n[nH]c3c2Cc2sc(-c4ccoc4)cc2-3)cc1 [Example-77, 2-Furan-3-yl-6-(4-methoxy-phenyl)-4,7-dihydro-1-thia-4,5-diaza-cyclopenta[a]pentalene] | < 100 nM
Brc1ccc(-c2n[nH]c3c2Cc2sc(Br)cc2-3)cn1 [Example-67, 2-Bromo-6-(6-bromo-pyridin-3-yl)-4,7-dihydro-1-thia-4,5-diaza-cyclopenta[a]pentalene] | 100 to 499 nM
Clc1ccc(Nc2n[nH]c3c2Cc2sccc2-3)cc1Cl [Example-53, (3,4-Dichloro-phenyl)-(4,7-dihydro-1-thia-4,5-diaza-cyclopenta[a]pentalen-6-yl)-amine] | 100 to 499 nM
O=S(=O)(c1ccc(Nc2n[nH]c3c2Cc2sccc2-3)cc1)N1CCCCC1 [Example-55, (4,7-Dihydro-1-thia-4,5-diaza-cyclopenta[a]pentalen-6-yl)-[4-(piperidine-1-sulfonyl)-phenyl]-amine] | 100 to 499 nM
COc1ccc(Nc2n[nH]c3c2Cc2sccc2-3)cc1OC [Example-24, (4,7-Dihydro-1-thia-4,5-diaza-cyclopenta[a]pentalen-6-yl)-(3,4-dimethoxy-phenyl)-amine] | < 100 nM
Clc1cc(Cl)cc(Nc2n[nH]c3c2Cc2sccc2-3)c1 [Example-49, (3,5-Dichloro-phenyl)-(4,7-dihydro-1-thia-4,5-diaza-cyclopenta[a]pentalen-6-yl)-amine] | 100 to 499 nM
Nc1ccc(-c2cc3c(s2)Cc2c(-c4ccc(O)cc4)n[nH]c2-3)cn1 [Example-92, 4-[2-(6-Amino-pyridin-3-yl)-4,7-dihydro-1-thia-4,5-diaza-cyclopenta[a]pentalen-6-yl]-phenol] | < 100 nM
Fc1cccc(Nc2n[nH]c3c2Cc2sccc2-3)c1 [Example-30, (4,7-Dihydro-1-thia-4,5-diaza-cyclopenta[a]pentalen-6-yl)-(3-fluoro-phenyl)-amine] | 100 to 499 nM
COc1ccc(-c2n[nH]c3c2Cc2sc(-c4ccc(F)cc4)cc2-3)cc1 [Example-71, 2-(4-Fluoro-phenyl)-6-(4-methoxy-phenyl)-4,7-dihydro-1-thia-4,5-diaza-cyclopenta[a]pentalene] | < 100 nM
COc1ccc(-c2n[nH]c3c2Cc2sc(-c4ccc(F)c(F)c4)cc2-3)cc1 [Example-72, 2-(3,4-Difluoro-phenyl)-6-(4-methoxy-phenyl)-4,7-dihydro-1-thia-4,5-diaza-cyclopenta[a]pentalene] | < 100 nM
FC(F)(F)c1cccc(Nc2n[nH]c3c2Cc2sccc2-3)c1 [Example-29, (4,7-Dihydro-1-thia-4,5-diaza-cyclopenta[a]pentalen-6-yl)-(3-trifluoromethyl-phenyl)-amine] | < 100 nM

Other lines, results leading:

IC50 | Structure (SMILES)
100 to 499 nM | Nc1cccc(-c2n[nH]c3c2Cc2sccc2-3)c1 [Example-59, 3-(4,7-Dihydro-1-thia-4,5-diaza-cyclopenta[a]pentalen-6-yl)-phenylamine hydrochloride]
100 to 499 nM | c1ccc(-c2n[nH]c3c2Cc2sccc2-3)nc1 [Example-58, 6-Pyridin-2-yl-4,7-dihydro-1-thia-4,5-diaza-cyclopenta[a]pentalene]
< 100 nM | Fc1cccc(Nc2ccc(-c3n[nH]c4c3Cc3sccc3-4)cc2)c1 [Example-37, [4-(4,7-Dihydro-1-thia-4,5-diaza-cyclopenta[a]pentalen-6-yl)-phenyl]-(3-fluoro-phenyl)-amine]
100 to 499 nM | Fc1ccc(Nc2ccc(-c3n[nH]c4c3Cc3sccc3-4)cc2)cc1 [Example-7, [4-(4,7-Dihydro-1-thia-4,5-diaza-cyclopenta[a]pentalen-6-yl)-phenyl]-(4-fluoro-phenyl)-amine]
100 to 499 nM | [O-][n+]1ccc(-c2n[nH]c3c2Cc2sccc2-3)cc1 [Example-61, 6-(1-Oxy-pyridin-4-yl)-4,7-dihydro-1-thia-4,5-diaza-cyclopenta[a]pentalene]
< 100 nM | Oc1ccc(-c2ccc(-c3n[nH]c4c3Cc3sccc3-4)cc2)cc1 [Example-11, 4′-(4,7-Dihydro-1-thia-4,5-diaza-cyclopenta[a]pentalen-6-yl)-biphenyl-4-ol]
< 100 nM | c1cc(Nc2ccc(-c3n[nH]c4c3Cc3sccc3-4)cc2)ccn1 [Example-62, [4-(4,7-Dihydro-1-thia-4,5-diaza-cyclopenta[a]pentalen-6-yl)-phenyl]-pyridin-4-yl-amine hydrochloride]
> 1000 nM | C(=Cc1ccc(-c2n[nH]c3c2Cc2sccc2-3)cc1)c1ccccc1 [Example-12, 6-(4-Styryl-phenyl)-4,7-dihydro-1-thia-4,5-diaza-cyclopenta[a]pentalene]
< 100 nM | Brc1cccc(-c2n[nH]c3c2Cc2sccc2-3)c1 [Example-47, 6-(3-Bromo-phenyl)-4,7-dihydro-1-thia-4,5-diaza-cyclopenta[a]pentalene]
< 100 nM | c1cc(-c2n[nH]c3c2Cc2sccc2-3)ccn1 [Example-60, 6-Pyridin-4-yl-4,7-dihydro-1-thia-4,5-diaza-cyclopenta[a]pentalene]
< 100 nM | Oc1ccc(-c2n[nH]c3c2Cc2sccc2-3)cc1 [Example-93, 4-(4,7-Dihydro-1-thia-4,5-diaza-cyclopenta[a]pentalen-6-yl)-phenol]
100 to 499 nM | O=[N+]([O-])c1ccc(-c2n[nH]c3c2Cc2sccc2-3)cc1 [Example-5, 6-(4-Nitro-phenyl)-4,7-dihydro-1-thia-4,5-diaza-cyclopenta[a]pentalene]
100 to 499 nM | c1ccc(-c2n[nH]c3c2Cc2sccc2-3)cc1 [Example-6, 6-Phenyl-4,7-dihydro-1-thia-4,5-diaza-cyclopenta[a]pentalene]
100 to 499 nM | COc1cccc(-c2n[nH]c3c2Cc2sccc2-3)c1 [Example-3, 6-(3-Methoxy-phenyl)-4,7-dihydro-1-thia-4,5-diaza-cyclopenta[a]pentalene]
